According to US10167262B2, “Herbicidal substituted 3-arylpyrazoles” (FMC CORPORATION, priority 2014, dated 2019):

Key:
Format in all cases: in vivo
[1] = test system: oilseed rape (Brassica napus); assay: Test C pre-/postemergence greenhouse test, plant response rating 0-100; settings: Preemergence
How it was run: (§1)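 Seeds were sown in a loam soil–sand blend and sprayed preemergence with test chemicals in a non-phytotoxic solvent mixture containing surfactant; postemergence plants in peat/vermiculite medium were treated at 2–18 cm (1- to 4-leaf stage). After 13 to 15 days in the greenhouse, injury was rated visually against untreated controls.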

[2] = test system: waterhemp (common waterhemp, Amaranthus rudis); assay: as above; settings: Preemergence
How it was run: as §1

[3] = test system: barnyardgrass (Echinochloa crus-galli); assay: as above; settings: Preemergence
How it was run: as §1

[4] = test system: green foxtail (Setaria viridis); assay: Test C postemergence greenhouse test, plant response rating 0-100
How it was run: (§2)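 Visual rating vs. controls, 0 (no effect) to 100 (complete control), 13–15 d after postemergence treatment. Potted plants, 1- to 4-leaf stage (2–18 cm), greenhouse-held.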

[5] = test system: goosegrass (Eleusine indica); assay: as above
How it was run: as §2

[6] = test system: downy bromegrass (Bromus tectorum); assay: as above
How it was run: as §2

[7] = test system: bermudagrass (Cynodon dactylon); assay: as above
How it was run: as §2

[8] = test system: deadnettle (henbit deadnettle, Lamium amplexicaule); assay: as above
How it was run: as §2

[9] = test system: woolly cupgrass (Eriochloa villosa); assay: as above
How it was run: as §2

[10] = test system: cocklebur (common cocklebur, Xanthium strumarium); assay: as above
How it was run: as §2

[11] = test system: canarygrass (Phalaris minor); assay: as above
How it was run: as §2

[12] = test system: surinam grass (Brachiaria decumbens); assay: as above
How it was run: as §2

Clc1cc(Cl)cc(-c2n[nH]cc2C(=NN2CCCC2)c2ccccc2)c1 [Compound 30, N-[[3-(3,5-dichlorophenyl)-1H-pyrazol-4-yl]phenylmethylene]-1-pyrrolidinamine]
100: Plant response rating, Oilseed Rape ([1]; 500 g ai/ha) | Plant response rating, Waterhemp ([2]; 62 g ai/ha) | Plant response rating, Waterhemp ([2]; 125 g ai/ha) | Plant response rating, Waterhemp ([2]; 250 g ai/ha) | Plant response rating, Waterhemp ([2]; 500 g ai/ha)
50: Plant response rating, Oilseed Rape ([1]; 62 g ai/ha)
80: Plant response rating, Oilseed Rape ([1]; 125 g ai/ha)
85: Plant response rating, Oilseed Rape ([1]; 250 g ai/ha)
10: Plant response rating (0 to 100), Cocklebur ([10]; 31 g ai/ha)
0: Plant response rating, Barnyardgrass ([3]; 62 g ai/ha) | Plant response rating, Barnyardgrass ([3]; 125 g ai/ha) | Plant response rating, Barnyardgrass ([3]; 250 g ai/ha) | Plant response rating, Barnyardgrass ([3]; 500 g ai/ha) | Plant response rating (0 to 100), Foxtail, Green ([4]; 31 g ai/ha) | Plant response rating (0 to 100), Foxtail, Green ([4]; 62 g ai/ha) | Plant response rating (0 to 100), Foxtail, Green ([4]; 125 g ai/ha) | Plant response rating, Foxtail, Green ([4]; 250 g ai/ha, scale 0 to 100) | Plant response rating (0 to 100), Goosegrass ([5]; 31 g ai/ha) | Plant response rating (0 to 100), Goosegrass ([5]; 62 g ai/ha) | Plant response rating (0 to 100), Goosegrass ([5]; 125 g ai/ha) | Plant response rating, Goosegrass ([5]; 250 g ai/ha, scale 0 to 100) | Plant response rating (0 to 100), Bromegrass, Downy ([6]; 31 g ai/ha) | Plant response rating (0 to 100), Bromegrass, Downy ([6]; 62 g ai/ha) | Plant response rating, Bromegrass, Downy ([6]; 125 g ai/ha, scale 0 to 100) | Plant response rating, Bromegrass, Downy ([6]; 250 g ai/ha, scale 0 to 100) | Plant response rating (0 to 100), Bermudagrass ([7]; 31 g ai/ha) | Plant response rating (0 to 100), Bermudagrass ([7]; 62 g ai/ha) | Plant response rating, Bermudagrass ([7]; 125 g ai/ha, scale 0 to 100) | Plant response rating, Bermudagrass ([7]; 250 g ai/ha, scale 0 to 100) | Plant response rating (0 to 100), Deadnettle ([8]; 31 g ai/ha) | Plant response rating (0 to 100), Deadnettle ([8]; 62 g ai/ha) | Plant response rating (0 to 100), Deadnettle ([8]; 125 g ai/ha) | Plant response rating, Deadnettle ([8]; 250 g ai/ha, scale 0 to 100) | Plant response rating (0 to 100), Cupgrass, Woolly ([9]; 31 g ai/ha) | Plant response rating (0 to 100), Cupgrass, Woolly ([9]; 62 g ai/ha) | Plant response rating (0 to 100), Cupgrass, Woolly ([9]; 125 g ai/ha) | Plant response rating, Cupgrass, Woolly ([9]; 250 g ai/ha, scale 0 to 100) | Plant response rating (0 to 100), Canarygrass ([11]; 31 g ai/ha) | Plant response rating (0 to 100), Canarygrass ([11]; 62 g ai/ha) | Plant response rating (0 to 100), Canarygrass ([11]; 125 g ai/ha) | Plant response rating, Canarygrass ([11]; 250 g ai/ha, scale 0 to 100) | Plant response rating (0 to 100), Surinam Grass ([12]; 62 g ai/ha) | Plant response rating (0 to 100), Surinam Grass ([12]; 125 g ai/ha) | Plant response rating, Surinam Grass ([12]; 250 g ai/ha, scale 0 to 100)

CCn1cc(C(=O)c2ccccc2)c(-c2cc(Cl)cc(Cl)c2)n1 [Compound 31, [3-(3,5-dichlorophenyl)-1-ethyl-1H-pyrazol-4-yl]phenylmethanone]
10: Plant response rating (0 to 100), Deadnettle ([8]; 125 g ai/ha) | Plant response rating, Cocklebur ([10]; 16 g ai/ha)
5: Plant response rating, Cupgrass, Woolly ([9]; 16 g ai/ha) | Plant response rating (0 to 100), Cupgrass, Woolly ([9]; 31 g ai/ha) | Plant response rating (0 to 100), Cupgrass, Woolly ([9]; 62 g ai/ha) | Plant response rating (0 to 100), Cupgrass, Woolly ([9]; 125 g ai/ha) | Plant response rating, Surinam Grass ([12]; 16 g ai/ha) | Plant response rating (0 to 100), Surinam Grass ([12]; 62 g ai/ha) | Plant response rating (0 to 100), Surinam Grass ([12]; 125 g ai/ha)
25: Plant response rating (0 to 100), Cocklebur ([10]; 125 g ai/ha)
20: Plant response rating (0 to 100), Cocklebur ([10]; 31 g ai/ha) | Plant response rating (0 to 100), Cocklebur ([10]; 62 g ai/ha)
0: Plant response rating, Foxtail, Green ([4]; 16 g ai/ha) | Plant response rating (0 to 100), Foxtail, Green ([4]; 31 g ai/ha) | Plant response rating (0 to 100), Foxtail, Green ([4]; 62 g ai/ha) | Plant response rating (0 to 100), Foxtail, Green ([4]; 125 g ai/ha) | Plant response rating, Goosegrass ([5]; 16 g ai/ha) | Plant response rating (0 to 100), Goosegrass ([5]; 31 g ai/ha) | Plant response rating (0 to 100), Goosegrass ([5]; 62 g ai/ha) | Plant response rating (0 to 100), Goosegrass ([5]; 125 g ai/ha) | Plant response rating, Bromegrass, Downy ([6]; 16 g ai/ha) | Plant response rating (0 to 100), Bromegrass, Downy ([6]; 31 g ai/ha) | Plant response rating (0 to 100), Bromegrass, Downy ([6]; 62 g ai/ha) | Plant response rating (0 to 100), Bromegrass, Downy ([6]; 125 g ai/ha) | Plant response rating, Bermudagrass ([7]; 16 g ai/ha) | Plant response rating (0 to 100), Bermudagrass ([7]; 31 g ai/ha) | Plant response rating (0 to 100), Bermudagrass ([7]; 62 g ai/ha) | Plant response rating (0 to 100), Bermudagrass ([7]; 125 g ai/ha) | Plant response rating, Deadnettle ([8]; 16 g ai/ha) | Plant response rating (0 to 100), Deadnettle ([8]; 31 g ai/ha) | Plant response rating (0 to 100), Deadnettle ([8]; 62 g ai/ha) | Plant response rating, Canarygrass ([11]; 16 g ai/ha) | Plant response rating (0 to 100), Canarygrass ([11]; 31 g ai/ha) | Plant response rating (0 to 100), Canarygrass ([11]; 62 g ai/ha) | Plant response rating (0 to 100), Canarygrass ([11]; 125 g ai/ha)

CCn1cc(C(=NN2CCCC2)c2ccccc2)c(-c2cc(Cl)cc(Cl)c2)n1 [Compound 37]
10: Plant response rating (0 to 100), Cocklebur ([10]; 62 g ai/ha)
0: Plant response rating (0 to 100), Foxtail, Green ([4]; 31 g ai/ha) | Plant response rating (0 to 100), Foxtail, Green ([4]; 62 g ai/ha) | Plant response rating (0 to 100), Foxtail, Green ([4]; 125 g ai/ha) | Plant response rating, Foxtail, Green ([4]; 250 g ai/ha, scale 0 to 100) | Plant response rating (0 to 100), Goosegrass ([5]; 31 g ai/ha) | Plant response rating (0 to 100), Goosegrass ([5]; 62 g ai/ha) | Plant response rating (0 to 100), Goosegrass ([5]; 125 g ai/ha) | Plant response rating, Goosegrass ([5]; 250 g ai/ha, scale 0 to 100) | Plant response rating (0 to 100), Bromegrass, Downy ([6]; 31 g ai/ha) | Plant response rating (0 to 100), Bromegrass, Downy ([6]; 62 g ai/ha) | Plant response rating (0 to 100), Bromegrass, Downy ([6]; 125 g ai/ha) | Plant response rating, Bromegrass, Downy ([6]; 250 g ai/ha, scale 0 to 100) | Plant response rating (0 to 100), Bermudagrass ([7]; 31 g ai/ha) | Plant response rating (0 to 100), Bermudagrass ([7]; 62 g ai/ha) | Plant response rating (0 to 100), Bermudagrass ([7]; 125 g ai/ha) | Plant response rating, Bermudagrass ([7]; 250 g ai/ha, scale 0 to 100) | Plant response rating (0 to 100), Deadnettle ([8]; 31 g ai/ha) | Plant response rating (0 to 100), Deadnettle ([8]; 62 g ai/ha) | Plant response rating (0 to 100), Deadnettle ([8]; 125 g ai/ha) | Plant response rating, Deadnettle ([8]; 250 g ai/ha, scale 0 to 100) | Plant response rating (0 to 100), Canarygrass ([11]; 31 g ai/ha) | Plant response rating (0 to 100), Canarygrass ([11]; 62 g ai/ha) | Plant response rating (0 to 100), Canarygrass ([11]; 125 g ai/ha) | Plant response rating, Canarygrass ([11]; 250 g ai/ha, scale 0 to 100) | Plant response rating (0 to 100), Surinam Grass ([12]; 62 g ai/ha) | Plant response rating (0 to 100), Surinam Grass ([12]; 125 g ai/ha) | Plant response rating, Surinam Grass ([12]; 250 g ai/ha, scale 0 to 100)
20: Plant response rating, Cocklebur ([10]; 250 g ai/ha, scale 0 to 100)
15: Plant response rating (0 to 100), Cocklebur ([10]; 125 g ai/ha)
5: Plant response rating (0 to 100), Cupgrass, Woolly ([9]; 31 g ai/ha) | Plant response rating (0 to 100), Cupgrass, Woolly ([9]; 62 g ai/ha) | Plant response rating (0 to 100), Cupgrass, Woolly ([9]; 125 g ai/ha) | Plant response rating, Cupgrass, Woolly ([9]; 250 g ai/ha, scale 0 to 100) | Plant response rating (0 to 100), Cocklebur ([10]; 31 g ai/ha)
